Laboratory results as given in patent publication US8809537B2, “N-ethyl-4-hydroxyl-1-methyl-5-(methyl(2,3,4,5,6-pentahydroxyhexyl)amino)-2-oxo-N-phenyl-1,2-dihydroquinoline-3-carboxamide” (Teva Pharmaceutical Industries, Ltd., priority 2012, dated 2014).

How the values were obtained:
[1] = cited from earlier work
[2] = test system: acute experimental autoimmune encephalomyelitis (aEAE) model; conditions: U.S. Pat. No. 6,077,851; cited from earlier work
relapsing MS = conditions: Polman et al. 2005; cited from earlier work
[3] = formation of MEG-LAQ in LAQ formulation containing meglumine (stability); type: physicochemical; conditions: meglumine used in LAQ formulation
Experimental: MEG-LAQ may form under certain conditions when meglumine is used in LAQ formulation. For example, MEG-LAQ is formed at 40° C. and 75% Relative Humidity (accelerated conditions). MEG-LAQ is also formed at room temperature at <0.1%.

CCN(C(=O)c1c(O)c2c(Cl)cccc2n(C)c1=O)c1ccccc1 [Laquinimod sodium]
oral bioavailability [1]: high oral bioavailability

CCN(C(=O)c1c(O)c2c(Cl)cccc2n(C)c1=O)c1ccccc1 [Laquinimod, N-ethyl-N-phenyl-1,2-dihydro-4-hydroxy-5-chloro-1-methyl-2-oxoquinoline-3-carboxamide]
effectiveness in the aEAE model [2]: effective | development of active MRI lesions (relapsing MS): can reduce development of active MRI lesions

CCN(C(=O)c1c(O)c2c(N(C)C[C@H](O)[C@@H](O)[C@H](O)[C@H](O)CO)cccc2n(C)c1=O)c1ccccc1 [MEG-LAQ, N-ethyl-4-hydroxyl-1-methyl-5-(methyl(2,3,4,5,6-pentahydroxyhexyl)amino)-2-oxo-N-phenyl-1,2-dihydroquinoline-3-carboxamide]
MEG-LAQ formed in LAQ formulation ([3]; 40° C. and 75% Relative Humidity (accelerated conditions)): formed | MEG-LAQ formed in LAQ formulation ([3]; room temperature): < 0.1%
